For one assay, the target named is T1, vesicular acetylcholine transporter (VAChT) (Lucilia sericata, UniProt Z9IC98WFD0).
T1 sequence (Z9IC98WFD0 1-593): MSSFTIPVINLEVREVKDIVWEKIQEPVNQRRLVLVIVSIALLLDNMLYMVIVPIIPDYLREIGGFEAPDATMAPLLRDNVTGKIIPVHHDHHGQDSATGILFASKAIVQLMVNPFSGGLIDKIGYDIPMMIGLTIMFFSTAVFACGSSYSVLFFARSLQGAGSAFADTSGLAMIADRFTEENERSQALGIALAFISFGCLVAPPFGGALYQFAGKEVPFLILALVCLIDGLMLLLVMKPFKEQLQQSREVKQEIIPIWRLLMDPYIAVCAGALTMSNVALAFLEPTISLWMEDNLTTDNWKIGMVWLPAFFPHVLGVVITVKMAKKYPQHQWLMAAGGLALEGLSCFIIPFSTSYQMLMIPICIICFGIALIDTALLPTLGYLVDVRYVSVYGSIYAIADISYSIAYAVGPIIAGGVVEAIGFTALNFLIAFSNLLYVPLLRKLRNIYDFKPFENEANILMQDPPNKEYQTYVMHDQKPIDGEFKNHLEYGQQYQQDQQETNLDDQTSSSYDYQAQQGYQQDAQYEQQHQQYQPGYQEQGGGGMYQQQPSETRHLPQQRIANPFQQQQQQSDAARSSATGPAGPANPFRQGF
The assay is described as follows: [3H]-A1 radioligand binding and competitive displacement, Lucilia sericata head membrane. Conditions: Lucilia head membrane, 9 nM [3H]-A1; read-out: Affinity at the [3H]-A1 binding site, competitive displacement. How it is done:
Methods herein were generally adapted from this publication.
Binding of [^3H]-A1 was measured using Lucilia sericata head membrane suspended in 50 mM Tris HCL buffer (pH7.4) containing 120 mM NaCl, and 100 mM EDTA, at a protein concentration of 1 mg/ml for dispensing into 96 well plates to give 50 μg protein per well. [^3H]-A1 was added to plates as a 37 MBq/ml ethanol stock dissolved in 2.2 ml assay buffer to give an approximate final well concentration of 9 nM. Test compounds were incubated at 25° C. for 90 min with 9 nM [^3H]-A1 (or a range of concentrations for saturation analysis) at either 8 rates (where prepared manually) or 6 or 10 rates where prepared using robotics. The binding incubation was terminated by vacuum filtration through glass fibre filter mats (PerkinElmerFilterMat A, Seer Green, UK), pre-treated with 0.5% polyethyleneimine and mounted on a Tomtec cell harvester. The filters were then washed rapidly with ice-cold water, dried and bound radioactivity measured using an EG&GWallac betaplate scintillation counter after impregnating the filter with solid scintillant (PerkinElmer MeltiLex). Non specific binding was subtracted from the counts at each data point to give the specific binding. The amount of displacement was calculated as a % of the control and the IC50 calculated from a curve fitted using a single-exponential algorithm.
Data was fitted with a single-exponential model.
To identify the insecticidal target-protein for alkylysulfones we examined the ability of a range of ligands with identified target proteins to displace [^3H]-A1 from its site on Lucilia membranes (see Table X3).
For `CCS(=O)(=O)c1cc(C(F)(F)F)cnc1-c1nc2cc(C(F)(F)F)ncc2n1C` [A2], the IC50 came out at 39 nM.

With `CCS(=O)(=O)c1cc(C(F)(F)F)cnc1-c1nc2cc(C(F)(F)F)cnc2n1C` [A3], the IC50 is 10 nM.

As for `CCS(=O)(=O)c1cc(C(F)(F)F)cnc1-c1nnc(-c2cc(C(F)(F)F)ccn2)n1C` [C1], the IC50 was 6.3 nM.

The same assay, now with this note: Lucilia membranes; ligands with identified target proteins.
Take `Cc1ccc(/N=C/N(C)/C=N/c2ccc(C)cc2C)c(C)c1` [Amitraz]: the “[3H]-A1 displacement IC50” value is listed as “Inactive or IC50>”.

For `Cc1cc(Cl)ccc1N=CN(C)C` [Chlordimeform], the “[3H]-A1 displacement IC50” value was “Inactive or IC50>”.

Still in this assay, the particulars now being: Lucilia membranes; ligands with identified target proteins; read-out: [3H]-A1 displacement IC50.
With `O=C(c1ccnc(Cl)c1)N1CC2(CCN(C/C=C/c3ccc(Cl)cc3)CC2)c2cc(F)ccc21` [5-F-CASPP], the IC50 is 2.3 nM.

With `CNC(=O)O/N=C/C(C)(C)SC` [Aldicarb], the IC50 is above 52600 nM.

On to `Nc1cccc2c1CC(N1CCC(c3ccccc3)CC1)C(O)C2` (centres unmarked) [Aminobenzovesamicol], for which the IC50 stood at 17.6 nM.

For `CCCCCC[C@H]1C(=O)O[C@H](C)[C@H](NC(=O)c2cccc(NC=O)c2O)C(=O)O[C@@H](C)[C@@H]1OC(=O)CC(C)C` [Antimycin A1], the IC50 is above 18200 nM.

As for `CNC(=O)c1cc(Cl)cc(C)c1NC(=O)c1cc(Br)nn1-c1ncccc1Cl` [Chlorantraniliprole], the IC50 was above 20800 nM.

`CNC(=O)c1cc(C#N)cc(C)c1NC(=O)c1cc(Br)nn1-c1ncccc1Cl` [Cyantraniliprole]: the IC50 was above 21200 nM.

Take `COC(=O)C12Cc3cc(Cl)ccc3C1=NN(C(=O)Nc1ccc(OC(F)(F)F)cc1)CO2` (centres unmarked) [DCJW]: the IC50 is above 21300 nM.

For `ClC1=C(Cl)[C@]2(Cl)[C@@H]3[C@@H]4C[C@@H]([C@H]5O[C@@H]45)[C@@H]3[C@@]1(Cl)C2(Cl)Cl` [Dieldrin], the IC50 was above 26500 nM.

Turning to `ClC1=C(Cl)C2(Cl)C3C4CC(C5OC45)C3C1(Cl)C2(Cl)Cl` (centres unmarked) [Endrin], the IC50 was above 26500 nM.

Consider `CC(C)C(C(=O)OC(C#N)c1cccc(Oc2ccccc2)c1)c1ccc(Cl)cc1` (centres unmarked) [Fenvalerate], for which the IC50 is above 23900 nM.

`N#Cc1nn(-c2c(Cl)cc(C(F)(F)F)cc2Cl)c(N)c1[S+]([O-])C(F)(F)F` (centres unmarked) [Fipronil]: the IC50 was above 22900 nM.

Regarding `CC(C)(C)N(NC(=O)c1ccc(Cl)cc1)C(=O)c1ccccc1` [Halofenozide], the IC50 is above 30300 nM.

Take `O=[N+]([O-])NC1=NCCN1Cc1ccc(Cl)nc1` [Imidacloprid]: the IC50 is above 19800 nM.

In the case of `COC(=O)N(C(=O)N1CO[C@@]2(C(=O)OC)Cc3cc(Cl)ccc3C2=N1)c1ccc(OC(F)(F)F)cc1` [Indoxacarb], the IC50 was above 19000 nM.

Take `CCN(CC)c1nc(C)cc(OP(=S)(OC)OC)n1` [Pirimiphos-methyl]: the IC50 was above 32800 nM.

In the case of `COC1CCC2(CC1)NC(=O)C(c1cc(C)ccc1C)=C2O` (centres unmarked) [Spirotetramat enol], the IC50 was above 33200 nM.

As to `CCc1ccc(C(=O)NN(C(=O)c2cc(C)cc(C)c2)C(C)(C)C)cc1` [Tebufenozide], the IC50 is above 28400 nM.

Turning to `CC(C)=CC1C(C(=O)OCN2C(=O)C3=C(CCCC3)C2=O)C1(C)C` (centres unmarked) [Tetramethrin], the IC50 came to 17400 nM.

In the case of Emamectin Benzoate, the IC50 was found to be 11300 nM.

With Spinosad, the IC50 is above 13700 nM.

The assay is the same for the next values; noted with them: Lucilia sericata head membrane, 9 nM [3H]-A1; read-out: IC50 Displacement Values of [3H]-A1.
As for `CCS(=N)(=O)c1cc(C(F)(F)F)cnc1-c1nc2cc(C(F)(F)F)cnc2n1C` (centres unmarked) [VAChT-1], the IC50 was determined as 100 nM.

Take `CCS(=O)(=O)c1cc(C2(C#N)CC2)cnc1-c1nc2cc(C(F)(F)F)cnc2n1C` [VAChT-7]: the IC50 was 8 nM.

With `CCS(=O)(=O)c1cccnc1-c1nc2cc(S(=O)(=O)C(F)(F)F)ccc2o1` [VAChT-13], the IC50 worked out at 2 nM.

For the compound `CCS(=O)(=O)c1ccc(-n2cncn2)nc1-c1nc2cc(C(F)(F)F)cnc2n1C` [VAChT-16], the IC50 was 10 nM.

Regarding `CCS(=O)(=O)c1c(-c2nc3cc(C(F)(F)F)cnc3n2C)nc2ccc(C(F)(F)F)cn12` [VAChT-19], the IC50 came out at 2 nM.

As to `CCS(=O)(=O)c1cc(C2(C#N)CC2)cnc1-c1nc2cc3c(cc2n1C)OC(F)(F)O3` [VAChT-20], the IC50 stood at 4 nM.

`CC[S@](=N)(=O)c1cc(OC(C)(C)C#N)cnc1-c1nc2cc(C(F)(F)F)cnc2n1C` [VAChT-27]: the IC50 came to 25 nM.

Consider `CC[S@@](=N)(=O)c1cc(C2(C#N)CC2)cnc1-c1nc2cc(C(F)(F)F)ncc2n1C` [VAChT-34], for which the IC50 was determined as 40 nM.

Consider `CCS(=N)(=O)c1cc(C2(C#N)CC2)cnc1-c1nc2cc(C(F)(F)F)nnc2n1C` (centres unmarked) [VAChT-35], for which the IC50 is 79 nM.

The assay is the same for the next values; noted with them: read-out: Affinity at the [3H]-A1 binding site, competitive displacement; Lucilia head membrane, 9 nM [3H]-A1.
Turning to `CCS(=O)(=O)c1cccnc1-c1nc2cc(S(=O)(=O)C(F)(F)F)ccc2o1` [B1], the IC50 stood at 2 nM.

Still in this assay, the particulars now being: read-out: [3H]-A1 displacement IC50.
As to `CN/C(=N/CC1CCOC1)N[N+](=O)[O-]` (centres unmarked) [Dinotofuran], the IC50 is above 49500 nM.

A further assay relates to Resistant Nilaparvata lugens. Nature of the assay: Resistant Nilaparvata lugens (rNIL). Format: in vivo. As to conditions: collected 2005, Karnataka, India. As for the experimental part:
Rice plants were treated with the diluted test solutions in a spray chamber. After drying, plants were infested with ~20 Nilaparvata lugens nymphs (N5). 7 days after the treatment samples were assessed for mortality. The adults were then removed and 15 days after the treatment samples were assessed for effect on F1 generation.
Resistant Nilaparvata lugens (rNIL)
Originally collected from Hosa-Hally, Karnataka district, India in 2005.
As to `CN1COCN(Cc2cnc(Cl)s2)/C1=N\[N+](=O)[O-]` [Thiamethoxam], the “resistance of the rNIL strain to the insecticide” value (“resistance of the rNIL strain” below) is reported as 200 fold.

On to `CN/C(=N\[N+](=O)[O-])NCc1cnc(Cl)s1` [clothianidin], for which the “resistance of the rNIL strain” value stood at 200 fold.

For the compound `CCN(Cc1ccc(Cl)nc1)/C(=C/[N+](=O)[O-])NC` [nitenpyram], the “resistance of the rNIL strain” value was found to be 30 fold.

In a further assay the test system is Resistant Myzus persicae. The assay is described as follows: Resistant Myzus persicae (rMP). Format: in vivo. Conditions: field-collected 2009, Southern France.
Experimental: Pepper plants were infested with an Myzus persicae population of mixed ages. One day after infestation the plants were treated with the diluted test solutions in a spray chamber. 5 days after treatment samples were assessed for mortality.
Regarding `CC1(C)[C@H](C(=O)O[C@H](C#N)c2cccc(Oc3ccccc3)c2)[C@@H]1/C=C(\Cl)C(F)(F)F` (racemic) [Lambda-cyhalothrin], the “resistance of the rMP population to the insecticide” value is on record as above 5000 fold.

Another assay concerns Resistant Plutella xylostella. Nature of the assay: Resistant Plutella xylostella (rPLU). Format: in vivo. Conditions: collected 2013, Changhua, Taiwan. How it is done: Chinese cabbage plants were treated with the diluted test solutions in a spray chamber. After drying, the leaves were cut off and placed in petri dishes with wetted filter paper. One day after treatment, the leaves were infested with 10 Plutella xylostella larvae (L3). Samples were assessed 4 days after infestation for mortality and growth regulation.
Resistant Plutella xylostella (rPLU)
A number of target-sites mutations were identified in this strain which confer resistance to pyrethroids (L1014F, T929I), organophosphates and carbamates (mAChE: A298S and G324A), and organochlorines (rdl: A298S), and diamides (ryr: G4546E).
On to `CC1(C)[C@H](C(=O)O[C@H](C#N)c2cccc(Oc3ccccc3)c2)[C@@H]1/C=C(\Cl)C(F)(F)F` (racemic) [Lambda-cyhalothrin], for which the “resistance of the rPLU strain to the insecticide” value (shortened to “resistance of the rPLU strain”) is reported as above 800 fold.

Consider `CCOP(=S)(OCC)Oc1nc(Cl)c(Cl)cc1Cl` [chlorpyrifos], for which the “resistance of the rPLU strain” value is recorded as 100 fold.

As for `Cc1cc(C(F)(C(F)(F)F)C(F)(F)F)ccc1NC(=O)c1cccc(I)c1C(=O)NC(C)(C)CS(C)(=O)=O` [flubendiamide], the “resistance of the rPLU strain” value came out at 300 fold.

Turning to abamectin, the “resistance of the rPLU strain” value is above 200 fold.

Still in this assay, the particulars now being: resistant strain, L3 larvae on Chinese cabbage, assessed 4 days after infestation; 0 = BP80 >200 ppm.
With `CCS(=O)(=O)c1c(N2Cc3ncc(C(F)(F)F)cc3C2=O)nc(-c2ccc(C3(C#N)CC3)cc2)n1C` [P77, 1-[4-[5-ethyl-sulfonyl-1-methyl-4-[5-oxo-3-(trifluoromethyl)-7H-pyrrolo[3,4-b]pyridin-6-yl]imidazol-2-yl]phenyl]cyclopro-panecarbonitrile], the “pBP80 r-PLU” value turned out to be 5.8.

For the next assay, the system named is Plutella xylostella. The assay is described as follows: Plutella xylostella (diamond back moth), larvae, feeding/contact (sPLU). Format: in vivo. As to conditions: sensitive strain, L3 larvae on Chinese cabbage, assessed 4 days after infestation; 0 = BP80 >200 ppm. As for the experimental part:
Plutella xylostella (Diamond Back Moth), Larvae, Feeding/Contact (sPLU) Chinese cabbage plants were treated with the diluted test solutions in a spray chamber. After drying, the leaves were cut off and placed in petri dishes with wetted filter paper. One day after treatment, the leaves were infested with 10 Plutella xylostella larvae (L3). Samples were assessed 4 days after infestation for mortality and growth regulation.
On to `CCS(=O)(=O)c1c(N2Cc3ncc(C(F)(F)F)cc3C2=O)nc(-c2ccc(C3(C#N)CC3)cc2)n1C` [P77, 1-[4-[5-ethyl-sulfonyl-1-methyl-4-[5-oxo-3-(trifluoromethyl)-7H-pyrrolo[3,4-b]pyridin-6-yl]imidazol-2-yl]phenyl]cyclopro-panecarbonitrile], for which the “pBP80 s-PLU” value stood at 5.8.

The test system of the next assay is Resistant Bemisia tabaci. The assay is described as follows: Resistant Bemisia tabaci (rBT). Format: in vivo. As to conditions: biotype Q, field-collected 2000, Almeria, Spain. How it is done: Cotton leaf discs were placed upside down in petri dishes on water agar and treated with the diluted test solutions in a spray chamber. After drying, leaf discs were infested with 10 adult Bemisia tabaci. Dishes were covered with a fabric filter and sealed with a perforated plastic lid. 4 days after treatment samples were assessed for mortality.
Resistant Bemisia tabaci (rBT)
Biotype Q originally field-collected in 2000 from Almeria, Spain. […] The strain carried the mutation L925I in the voltage-gated sodium channel conferring resistance to pyrethroids. It also had higher expression of the p450 CYP6CM1 conferring metabolic resistance to neonicotinoids.
As to `CC1(C)[C@H](C(=O)O[C@H](C#N)c2cccc(Oc3ccccc3)c2)[C@@H]1/C=C(\Cl)C(F)(F)F` (racemic) [Lambda-cyhalothrin], the “resistance of the rBT population to the insecticide” value came out at 40 fold.

Source of the values: US20260271928A1, “CONTROL OF PESTS RESISTANT TO INSECTICIDES” (Syngenta Crop Protection Ag, priority 2023, published 2026).
